# According to US20170000715A1, “PEGYLATED 7-DEHYDROCHOLESTEROL DERIVATIVES” (HUMEDIX CO., LTD., priority 2014, published 2017):
# Experiment: Solubility test (saturated aqueous solution in distilled water, gravimetric)
# Assay type: physicochemical
# Conditions: room temperature, calculated according to Equation 1
# Experimental: Each of compounds of Examples 1 and 5 and 7-dehydrocholesterol as a comparative material was dissolved in an amount of 100 mg in 100 ml of distilled water, followed by stirring at room temperature for 1 hour. The procedure was repeated until each compound was saturated and those being not dissolved were filtered, to prepare each saturated aqueous solution.
# Then, the saturated aqueous solution was put into a weighed empty container (A), followed by weighing (B). Then, the saturated aqueous solution in the container was concentrated in reduced pressure and dried under vacuum, followed by weighing (C). The solubility of each solution was calculated according to the following Equation 1, and the results thereof are shown in Table 2.
smiles,measurement,value
"CC(C)CCC[C@@H](C)[C@H]1CC[C@H]2C3=CC=C4C[C@@H](O)CC[C@]4(C)[C@H]3CC[C@]12C [7-Dehydrocholesterol, 7-dehydrocholesterol]",Solubility,Insoluble
